Source: PubChem BioAssay AID1963840 (Molecular Pharmacology Branch, DTP, NCI, 2024)

Tested on: 695427-040-R-J1-PDC complex spheroid viability
Assay: Anticancer human tumor 695427-040-R-J1-PDC patient-derived colon adenocarcinoma cell line growth inhibition [POLQ]
Conditions: for IC50: curve of first compound; for viability, T/C: stronger effect = lower value
How it was run: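 PDC + HUVEC + MSC complex spheroids; POLQ inhibitors ± partner drugs; top conc. at/near clinical Cmax, else 10 microM (SN-38 1 microM), half-log dilutions; 37 degrees C, 5% CO2.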

[1] = second compound 0.0316 µM, first compound 0.0316 µM
[2] = second compound 0.0316 µM, first compound 0.1 µM
[3] = second compound 0.0316 µM, first compound 0.316 µM
[4] = second compound 0.0316 µM, first compound 1 µM
[5] = second compound 0.0316 µM, first compound 3.16 µM
[6] = second compound 0.0316 µM, first compound 10 µM
[7] = second compound 0.1 µM, first compound 0.0316 µM
[8] = second compound 0.1 µM, first compound 0.1 µM
[9] = second compound 0.1 µM, first compound 0.316 µM
[10] = second compound 0.1 µM, first compound 1 µM
[11] = second compound 0.1 µM, first compound 3.16 µM
[12] = second compound 0.1 µM, first compound 10 µM
[13] = second compound 0.316 µM, first compound 0.0316 µM
[14] = second compound 0.316 µM, first compound 0.1 µM
[15] = second compound 0.316 µM, first compound 0.316 µM
[16] = second compound 0.316 µM, first compound 1 µM
[17] = second compound 0.316 µM, first compound 3.16 µM
[18] = second compound 0.316 µM, first compound 10 µM
[19] = second compound 1 µM, first compound 0.0316 µM
[20] = second compound 1 µM, first compound 0.1 µM
[21] = second compound 1 µM, first compound 0.316 µM
[22] = second compound 1 µM, first compound 1 µM
[23] = second compound 1 µM, first compound 3.16 µM
[24] = second compound 1 µM, first compound 10 µM
[25] = second compound 3.16 µM, first compound 0.0316 µM
[26] = second compound 3.16 µM, first compound 0.1 µM
[27] = second compound 3.16 µM, first compound 0.316 µM
[28] = second compound 3.16 µM, first compound 1 µM
[29] = second compound 3.16 µM, first compound 3.16 µM
[30] = second compound 3.16 µM, first compound 10 µM
[31] = second compound 10 µM, first compound 0.0316 µM
[32] = second compound 10 µM, first compound 0.1 µM
[33] = second compound 10 µM, first compound 0.316 µM
[34] = second compound 10 µM, first compound 1 µM
[35] = second compound 10 µM, first compound 3.16 µM
[36] = second compound 10 µM, first compound 10 µM
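Note: spheroids exposed to compounds for seven days.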
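Throughout, for viability, T/C: 100% = DMSO vehicle control viability.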

CCCS(=O)(=O)Nc1ccc(F)c(C(=O)c2c[nH]c3ncc(-c4ccc(Cl)cc4)cc23)c1F + Nc1ccc(C#CCN(C(=O)Cc2ncc(C(F)(F)F)cc2C(F)(F)F)c2ccc(F)cc2)nn1
IC50 (second compound 0.0316 µM): > 10 µM
IC50 (second compound 0.1 µM): > 10 µM
IC50 (second compound 0.316 µM): > 10 µM
IC50 (second compound 1 µM): > 10 µM
IC50 (second compound 3.16 µM): > 10 µM
IC50 (second compound 10 µM): > 10 µM
viability, T/C [1]: 101%
viability, T/C [2]: 100%
viability, T/C [3]: 102%
viability, T/C [4]: 111%
viability, T/C [5]: 117%
viability, T/C [6]: 88.8%
viability, T/C [7]: 112%
viability, T/C [8]: 108%
viability, T/C [9]: 105%
viability, T/C [10]: 106%
viability, T/C [11]: 113%
viability, T/C [12]: 87.1%
viability, T/C [13]: 100%
viability, T/C [14]: 108%
viability, T/C [15]: 107%
viability, T/C [16]: 102%
viability, T/C [17]: 106%
viability, T/C [18]: 85.4%
viability, T/C [19]: 103%
viability, T/C [20]: 99.9%
viability, T/C [21]: 107%
viability, T/C [22]: 102%
viability, T/C [23]: 110%
viability, T/C [24]: 81.7%
viability, T/C [25]: 109%
viability, T/C [26]: 100%
viability, T/C [27]: 103%
viability, T/C [28]: 107%
viability, T/C [29]: 111%
viability, T/C [30]: 88.8%
viability, T/C [31]: 95.1%
viability, T/C [32]: 92.8%
viability, T/C [33]: 110%
viability, T/C [34]: 95.3%
viability, T/C [35]: 97.2%
viability, T/C [36]: 85.7%

O=C(Nc1ccc(O)c(NS(=O)(=O)c2ccc(F)cc2)c1)c1ccc(-c2ccccc2)cc1 + Nc1ccc(C#CCN(C(=O)Cc2ncc(C(F)(F)F)cc2C(F)(F)F)c2ccc(F)cc2)nn1
IC50 (second compound 0.0316 µM): > 10 µM
IC50 (second compound 0.1 µM): > 10 µM
IC50 (second compound 0.316 µM): > 10 µM
IC50 (second compound 1 µM): > 10 µM
IC50 (second compound 3.16 µM): > 10 µM
IC50 (second compound 10 µM): > 10 µM
viability, T/C [1]: 108%
viability, T/C [2]: 107%
viability, T/C [3]: 105%
viability, T/C [4]: 107%
viability, T/C [5]: 109%
viability, T/C [6]: 91.9%
viability, T/C [7]: 112%
viability, T/C [8]: 105%
viability, T/C [9]: 92.8%
viability, T/C [10]: 104%
viability, T/C [11]: 104%
viability, T/C [12]: 97.3%
viability, T/C [13]: 106%
viability, T/C [14]: 106%
viability, T/C [15]: 99.8%
viability, T/C [16]: 101%
viability, T/C [17]: 108%
viability, T/C [18]: 87.4%
viability, T/C [19]: 112%
viability, T/C [20]: 97.4%
viability, T/C [21]: 99.1%
viability, T/C [22]: 105%
viability, T/C [23]: 119%
viability, T/C [24]: 80.2%
viability, T/C [25]: 108%
viability, T/C [26]: 104%
viability, T/C [27]: 99.2%
viability, T/C [28]: 109%
viability, T/C [29]: 112%
viability, T/C [30]: 112%
viability, T/C [31]: 99%
viability, T/C [32]: 94%
viability, T/C [33]: 104%
viability, T/C [34]: 94.7%
viability, T/C [35]: 93.5%
viability, T/C [36]: 88.1%
